What was measured:
D-263MG (Glioblastoma) = experiment: combination Emax (second highest fraction inhibited in the dose matrix, 72 h); higher = more inhibition; extreme values may be limits of the assay
How it was run: (§1)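 After 24 hours at 37°C and 5% CO2 in 1536-well plates, cells in DMEM/F12 or RPMI plus 10% FBS received two-drug dose matrices for 72 hours. Viability came from CellTiter-Glo 2.0 luminescence and was scaled as inhibition, anchored at 0 by vehicle wells and at 1 by blank wells. Combination Emax is taken as the second-highest inhibition in the matrix, and Bliss excess as the observed combination effect less EA + EB − EA·EB, with EA and EB the single-agent effects.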

[1] = system: Ca9-22 (Head and Neck Carcinoma); experiment: Bliss excess, mean over the matrix (fraction); higher = more synergy
How it was run: as §1

[2] = system: PANC-04-03 (Pancreatic Carcinoma); experiment: as above
How it was run: as §1

[3] = system: LU-65 (Non-Small Cell Lung Carcinoma); experiment: as above
How it was run: as §1

YH-13 (Glioblastoma) = experiment: as above
How it was run: as §1

[4] = system: Hs-766T (Pancreatic Carcinoma); experiment: as above
How it was run: as §1

TK10 (Kidney Carcinoma) = experiment: as above
How it was run: as §1

[5] = system: Caov-4 (Ovarian Carcinoma); experiment: as above
How it was run: as §1

TGW (Neuroblastoma) = experiment: as above
How it was run: as §1

[6] = system: KARPAS-299 (T-Cell Non-Hodgkin's Lymphoma); experiment: as above
How it was run: as §1

[7] = system: KYSE-450 (Esophageal Squamous Cell Carcinoma); experiment: as above
How it was run: as §1

ACHN (Kidney Carcinoma) = experiment: as above
How it was run: as §1

[8] = system: NCI-H358 (Lung Adenocarcinoma); experiment: as above
How it was run: as §1
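Wherever Bliss excess, mean over the matrix is given: after 72 h of two-drug dosing.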

| SMILES | combination Emax (D-263MG (Glioblastoma)) | Bliss excess [1] | Bliss excess [2] | Bliss excess [3] | Bliss excess (YH-13 (Glioblastoma)) | Bliss excess [4] | Bliss excess (TK10 (Kidney Carcinoma)) | Bliss excess [5] | Bliss excess (TGW (Neuroblastoma)) | Bliss excess [6] | Bliss excess [7] | Bliss excess (ACHN (Kidney Carcinoma)) | Bliss excess [8] |
| --- | --- | --- | --- | --- | --- | --- | --- | --- | --- | --- | --- | --- | --- |
| O=C(c1cc(Cc2n[nH]c(=O)c3ccccc23)ccc1F)N1CCN(C(=O)C2CC2)CC1 [Olaparib] + COc1nnc2ccc(N3CCC(c4ccc(OCCN5CCN(C)C(=O)[C@H]5C)cc4)CC3)nn12 [AZD5153] (first compound max 10 µM, 7x7, partner max 1 µM) | 0.343 | -0.0495 | -0.0698 | -0.0601 | -0.0114 | -0.0857 | -0.0301 | -0.0634 | -0.054 | -0.0654 | -0.0606 | -0.0367 | -0.026 |
| Cc1nc(-c2cn3c(n2)-c2ccc(-c4cnn(C(C)(C)C(N)=O)c4)cc2OCC3)n(C(C)C)n1 [Taselisib] + O=C(Nc1ccc2[nH]nc(-c3ccncc3)c2c1)[C@@H]1CCN(CC(=O)N2CCN(c3ccc(-c4ncccn4)cc3)CC2)C1 [SCH772984] (first compound max 10 µM, 7x7, partner max 5 µM) | 0.892 | 0.116 | 0.0934 | 0.214 | -0.0586 | -0.0386 | -0.008 | 0.0269 | 0.033 | 0.147 | 0.0365 | 0.0219 | 0.0402 |
| CN(CCO)CC[C@H](CSc1ccccc1)Nc1ccc(S(=O)(=O)NC(=O)c2ccc(N3CCC([C@@H](O)c4ccccc4-c4ccc(Cl)cc4)CC3)cc2)cc1S(=O)(=O)C(F)(F)F [AZD4320] + CS(=O)(=O)CCNCc1ccc(-c2ccc3ncnc(Nc4ccc(OCc5cccc(F)c5)c(Cl)c4)c3c2)o1 [Lapatinib] (first compound max 1 µM, 7x7, partner max 10 µM) | 0.154 | 0.0479 | -0.0143 | -0.0043 | 0.0183 | -0.0586 | -0.0942 | -0.0144 | 0.0959 | 0.0265 | -0.0459 | -0.011 | – |
| C[C@@H]1COCCN1c1cc(C2([S@](C)(=N)=O)CC2)nc(-c2ccnc3[nH]ccc23)n1 [AZD6738] + Nc1ccn([C@@H]2O[C@H](CO)[C@@H](O)C2(F)F)c(=O)n1 [Gemcitabine] (first compound max 10 µM, 7x7, partner max 0.3 µM) | 0.738 | 0.0536 | -0.0244 | 0.0191 | 0.0228 | -0.0278 | -0.0417 | 0.0431 | 0.0013 | 0.0607 | 0.104 | 0.0003 | 0.07 |
| C[C@@H](Nc1cc(F)cc(F)c1)c1cc(C(=O)N(C)C)cc2c(=O)cc(N3CCOCC3)oc12 [AZD8186] + CC(=O)c1c(C)c2cnc(Nc3ccc(N4CCNCC4)cn3)nc2n(C2CCCC2)c1=O [Palbociclib] (first compound max 10 µM, 7x7, partner max 10 µM) | 0.355 | 0.021 | 0.0107 | -0.0378 | 0.0183 | 0.006 | -0.0069 | 0.0078 | -0.0397 | 0.0912 | -0.0404 | 0.0335 | -0.0167 |
| C[C@@H](Oc1cc(-c2cnn(C3CCNCC3)c2)cnc1N)c1c(Cl)ccc(F)c1Cl [Crizotinib] + Cn1cnc2c(F)c(Nc3ccc(Br)cc3Cl)c(C(=O)NOCCO)cc21 [Selumetinib] (first compound max 10 µM, 7x7, partner max 10 µM) | 0.308 | -0.0286 | -0.0194 | 0.0003 | -0.0111 | -0.0074 | -0.0705 | -0.025 | -0.0252 | -0.032 | -0.0241 | 0.0277 | -0.106 |
| C[C@@H]1COCCN1c1cc(C2([S@](C)(=N)=O)CC2)nc(-c2ccnc3[nH]ccc23)n1 [AZD6738] + C1CC(C1)(C(=O)[O-])C(=O)[O-].N.N.[Pt+2] [Carboplatin] (first compound max 10 µM, 7x7, partner max 10 µM) | 0.386 | -0.0479 | -0.0682 | -0.0954 | -0.0453 | -0.0536 | -0.0837 | -0.0209 | -0.0765 | -0.0261 | -0.0386 | -0.034 | -0.091 |
| O=C(c1cc(Cc2n[nH]c(=O)c3ccccc23)ccc1F)N1CCN(C(=O)C2CC2)CC1 [Olaparib] + Cc1c2c(nn1C)CSCc1cc(n(C)n1)CSc1cc(c3ccccc3c1)OCCCc1c(C(=O)O)n(C)c3c-2c(Cl)ccc13 [AZD5991] (first compound max 10 µM, 7x7, partner max 1 µM) | 0.562 | 0.0247 | -0.0554 | -0.0452 | -0.0298 | -0.0818 | -0.0699 | -0.0215 | -0.032 | 0.0202 | -0.0409 | -0.0218 | -0.0513 |
| C=CCn1c(=O)c2cnc(Nc3ccc(N4CCN(C)CC4)cc3)nc2n1-c1cccc(C(C)(C)O)n1 [AZD1775] + CCc1c2c(nc3ccc(O)cc13)-c1cc3c(c(=O)n1C2)COC(=O)[C@]3(O)CC [SN-38] (first compound max 1 µM, partner max 0.3 µM) | 0.641 | 0.0045 | -0.0594 | -0.0127 | -0.0262 | 0.0017 | -0.0717 | -0.0557 | -0.0592 | -0.042 | 0.0358 | -0.0634 | -0.0162 |
| O=C(c1cc(Cc2n[nH]c(=O)c3ccccc23)ccc1F)N1CCN(C(=O)C2CC2)CC1 [Olaparib] + CC1(C)CCC(CN2CCN(c3ccc(C(=O)NS(=O)(=O)c4ccc(NCC5CCOCC5)c([N+](=O)[O-])c4)c(Oc4cnc5[nH]ccc5c4)c3)CC2)=C(c2ccc(Cl)cc2)C1 [Venetoclax] (first compound max 10 µM, 7x7, partner max 1 µM) | 0.0634 | 0.0323 | -0.0318 | -0.0323 | -0.0207 | -0.0885 | -0.0727 | -0.032 | -0.0225 | 0.0277 | -0.0499 | -0.0214 | -0.054 |
| CS(=O)(=O)CCNCc1ccc(-c2ccc3ncnc(Nc4ccc(OCc5cccc(F)c5)c(Cl)c4)c3c2)o1 [Lapatinib] + Cn1cnc2c(F)c(Nc3ccc(Br)cc3Cl)c(C(=O)NOCCO)cc21 [Selumetinib] (first compound max 10 µM, 7x7, partner max 10 µM) | 0.259 | 0.0498 | 0.0145 | -0.0113 | -0.0095 | -0.0652 | -0.008 | 0.0493 | -0.079 | 0.0736 | -0.016 | 0.0251 | -0.0044 |
| C[C@@H](Oc1cc(-c2cnn(C3CCNCC3)c2)cnc1N)c1c(Cl)ccc(F)c1Cl [Crizotinib] + CC1=C(C(=CC=C1)Cl)NC(=O)C2=CN=C(S2)NC3=CC(=NC(=N3)C)N4CCN(CC4)CCO [Dasatinib] (first compound max 10 µM, 7x7, partner max 2 µM) | 0.843 | 0.0635 | -0.0683 | -0.0973 | 0.107 | -0.074 | 0.0333 | -0.0441 | -0.0593 | -0.0263 | 0.0276 | 0.0041 | -0.0813 |
| Cc1c2c(nn1C)CSCc1cc(n(C)n1)CSc1cc(c3ccccc3c1)OCCCc1c(C(=O)O)n(C)c3c-2c(Cl)ccc13 [AZD5991] + CS(=O)(=O)CCNCc1ccc(-c2ccc3ncnc(Nc4ccc(OCc5cccc(F)c5)c(Cl)c4)c3c2)o1 [Lapatinib] (first compound max 1 µM, 7x7, partner max 10 µM) | 0.458 | 0.0614 | -0.0275 | 0.0232 | – | -0.0526 | -0.0567 | 0.0835 | -0.0015 | 0.0227 | -0.0108 | 0.0028 | -0.0019 |
| Cc1c2c(nn1C)CSCc1cc(n(C)n1)CSc1cc(c3ccccc3c1)OCCCc1c(C(=O)O)n(C)c3c-2c(Cl)ccc13 [AZD5991] + Nc1ccn([C@@H]2O[C@H](CO)[C@@H](O)C2(F)F)c(=O)n1 [Gemcitabine] (first compound max 1 µM, 7x7, partner max 0.3 µM) | 0.894 | 0.0042 | -0.0643 | -0.0251 | 0.0143 | -0.0234 | -0.0198 | -0.0312 | 0.007 | -0.0188 | -0.0267 | -0.0455 | -0.0276 |
| O=C(c1cc(Cc2n[nH]c(=O)c3ccccc23)ccc1F)N1CCN(C(=O)C2CC2)CC1 [Olaparib] + CN(CC[C@H](CSC1=CC=CC=C1)NC2=C(C=C(C=C2)S(=O)(=O)NC(=O)C3=CC=C(C=C3)N4CCC(CC4)[C@H](C5=CC=CC=C5C6=CC=C(C=C6)Cl)O)S(=O)(=O)C(F)(F)F)CCO [AZD4320] (first compound max 10 µM, 7x7, partner max 1 µM) | 0.0474 | 0.006 | -0.0555 | -0.0739 | 0.0012 | -0.0976 | -0.0439 | -0.0392 | -0.0479 | 0.109 | -0.0434 | -0.0164 | -0.0383 |
| C=CCn1c(=O)c2cnc(Nc3ccc(N4CCN(C)CC4)cc3)nc2n1-c1cccc(C(C)(C)O)n1 [AZD1775] + Nc1ccn([C@@H]2O[C@H](CO)[C@@H](O)C2(F)F)c(=O)n1 [Gemcitabine] (first compound max 1 µM, partner max 0.3 µM) | 0.622 | 0.0821 | -0.0346 | -0.0081 | 0.0208 | -0.0742 | -0.0299 | 0 | -0.0355 | 0.0851 | 0.0717 | -0.0338 | -0.0113 |
| Cc1c2c(nn1C)CSCc1cc(n(C)n1)CSc1cc(c3ccccc3c1)OCCCc1c(C(=O)O)n(C)c3c-2c(Cl)ccc13 [AZD5991] + CC(=O)O[C@H]1C(=O)[C@@]2(C)[C@H]([C@H](OC(=O)c3ccccc3)[C@]3(O)C[C@H](OC(=O)[C@H](O)[C@@H](NC(=O)c4ccccc4)c4ccccc4)C(C)=C1C3(C)C)[C@]1(OC(C)=O)CO[C@@H]1C[C@@H]2O [Paclitaxel] (first compound max 1 µM, 7x7, partner max 3 µM) | 1 | 0.0065 | 0.0111 | -0.0944 | 0.0246 | -0.0539 | -0.0402 | 0.0995 | -0.0235 | -0.0693 | 0.0363 | -0.0038 | -0.0405 |
| CC1(C)CCC(CN2CCN(c3ccc(C(=O)NS(=O)(=O)c4ccc(NCC5CCOCC5)c([N+](=O)[O-])c4)c(Oc4cnc5[nH]ccc5c4)c3)CC2)=C(c2ccc(Cl)cc2)C1 [Venetoclax] + CS(=O)(=O)CCNCc1ccc(-c2ccc3ncnc(Nc4ccc(OCc5cccc(F)c5)c(Cl)c4)c3c2)o1 [Lapatinib] (first compound max 1 µM, 7x7, partner max 10 µM) | 0.108 | 0.0232 | -0.0396 | 0.0159 | -0.04 | -0.0636 | -0.0141 | -0.0353 | -0.0223 | 0.0202 | -0.0413 | -0.0198 | -0.0321 |
